The source of these data is US20120040951A1, “HETEROARYL COMPOUNDS USEFUL AS RAF KINASE INHIBITORS” (priority 2008, published 2012).

The target of one assay is V599E Raf (Homo sapiens, UniProt P15056, V600E). As to the kind of experiment: Biochemical FRET assay, mutant Raf (phosphorylation of MEK). The conditions noted are these: 0.125 nM V599E Raf, 100 nM biotin-MEK, 25 μM ATP, read-out: Raf (mut) inhibition. An outline of the steps:
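V599E Raf (0.125 nM) preincubated 20 min with inhibitor and 100 nM biotin-MEK in HEPES pH 7.4 with Mg2+/Mn2+, then reacted with 25 μM ATP for 60 min at room temperature. EDTA-stopped; phospho-MEK1/2 (Ser217/221) detected by Eu/APC TR-FRET after 90 min.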

Assay [1] has as its system phospho-ERK in melanoma derived WM-266-4 cells. As to the kind of experiment: Mechanistic cellular assay for Raf kinase activity (phospho-ERK, Bio-Plex). Type of assay: cell-based. The conditions noted are these: Homo sapiens, treated 1-2 hr at 37° C., serum free medium, read-out: pERK EC50. The method, boiled down:
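WM-266-4 melanoma cells (wild-type/V600D BRaf) grown overnight in 10% FBS RPMI, then treated 1–2 h at 37 °C in serum-free RPMI with eight 3-fold dilutions of compound (from 5 mM DMSO stock, 1000× dilution). Lysate phospho-ERK1,2 quantified by Bio-Plex bead immunoassay.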

A value given as a limit tells only on which side of the number the result lay.

Chain of V599E Raf (P15056 whole entry V600E): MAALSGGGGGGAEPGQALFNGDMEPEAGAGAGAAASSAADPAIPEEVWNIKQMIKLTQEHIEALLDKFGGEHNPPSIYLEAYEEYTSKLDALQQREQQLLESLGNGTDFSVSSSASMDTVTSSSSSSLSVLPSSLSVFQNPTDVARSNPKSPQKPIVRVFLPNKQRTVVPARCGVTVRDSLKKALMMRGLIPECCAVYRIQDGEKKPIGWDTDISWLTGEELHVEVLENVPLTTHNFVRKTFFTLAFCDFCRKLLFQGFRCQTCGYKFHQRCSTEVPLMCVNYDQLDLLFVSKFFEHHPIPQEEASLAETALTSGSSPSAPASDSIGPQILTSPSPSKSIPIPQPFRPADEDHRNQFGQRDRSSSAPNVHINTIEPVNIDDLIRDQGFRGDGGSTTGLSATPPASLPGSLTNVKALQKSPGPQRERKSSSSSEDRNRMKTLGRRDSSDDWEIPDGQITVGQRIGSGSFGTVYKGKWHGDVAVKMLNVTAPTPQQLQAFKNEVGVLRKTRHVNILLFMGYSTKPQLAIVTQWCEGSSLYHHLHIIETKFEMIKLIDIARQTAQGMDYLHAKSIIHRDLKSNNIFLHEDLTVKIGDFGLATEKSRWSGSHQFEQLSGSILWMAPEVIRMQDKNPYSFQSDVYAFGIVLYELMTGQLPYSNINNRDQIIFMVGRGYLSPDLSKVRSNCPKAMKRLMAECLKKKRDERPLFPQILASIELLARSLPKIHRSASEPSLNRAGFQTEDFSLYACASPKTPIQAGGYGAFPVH

On to `C[C@@H](NC(=O)c1ccc2[nH]nnc2c1)c1ncc(C(=O)Nc2cc(C(F)(F)F)c(Cl)cn2)s1` [Example 57], for which the IC50 at V599E Raf was ≤ 100 nM. The half-maximal effective concentration (EC50) in assay [1] was 1000 to 10000 nM.

As for `CCN1CC(n2cnc3cnc(C(=O)N[C@H](C)c4cnc(Nc5ccc(C(F)(F)F)cc5)s4)cc32)C1` [Example 30], the IC50 on V599E Raf is ≤ 100 nM. Further, in assay [1], the EC50 is ≤ 100 nM.

As for `CC(NC(=O)c1cnn(C)c1N)c1cnc(Nc2ccc(C(F)(F)F)cc2)s1` (stereo not drawn) [Example 108], the IC50 on V599E Raf is ≤ 100 nM. Further, the EC50 in assay [1] was in the range of 100 to 1000 nM.

As to `CC(NC(=O)c1cc2c(cn1)ncn2C)c1cnc(Nc2ccc(F)c(C(C)(C)C(F)(F)F)c2)s1` (stereo not drawn) [Example 290], the IC50 on V599E Raf is ≤ 100 nM. The EC50 in assay [1] was ≤ 100 nM.

`CNc1nc(C(C)(C)C)ncc1Nc1ncc(C(C)NC(=O)c2cc3c(cn2)ncn3C)s1` (stereo not drawn) [Example 280]: the IC50 at V599E Raf is ≤ 100 nM. Moreover, the EC50 in assay [1] was in the range of 100 to 1000 nM.

Consider `CC(NC(=O)c1ccnc(N2CCOCC2)c1)c1ncc(C(=O)Nc2cc(C(F)(F)F)c(Cl)cn2)s1` (stereo not drawn) [Example 89], for which, at V599E Raf, the IC50 is 100 to 1000 nM. Also, the 50% effective concentration (EC50) in assay [1] is 100 to 1000 nM.

Regarding `Cc1nc(C)c(C(=O)N[C@H](C)c2ncc(C(=O)Nc3cc(C(F)(F)F)c(Cl)cn3)s2)s1` [Example 101], the IC50 at V599E Raf is ≤ 100 nM. The concentration giving a half-maximal response (EC50) in assay [1] lay in the range of 1000 to 10000 nM.

As to `C[C@@H](NC(=O)c1cc2c(cn1)ncn2C1CN(C)C1)c1cnc(Nc2ccc(C(F)(F)F)cc2)s1` [Example 182], the IC50 on V599E Raf is ≤ 100 nM. In assay [1], the EC50 is 100 to 1000 nM.

Take `CC(NC(=O)c1cc2c(cn1)ncn2CCN(C)C)c1cnc(Nc2ccc(C(F)(F)F)cc2)s1` (stereo not drawn) [Example 7]: the IC50 on V599E Raf was ≤ 100 nM. Further, the concentration for a half-maximal effect (EC50) in assay [1] was ≤ 100 nM.

As for `CC(NC(=O)c1cnc2n1CCCN2)c1cnc(Nc2ccc(C(F)(F)F)cc2)s1` (stereo not drawn) [Example 177], the IC50 at V599E Raf was ≤ 100 nM. The EC50 in assay [1] is 100 to 1000 nM.

Regarding `CC(NC(=O)c1cc2nc[nH]c2cn1)c1cnc(Nc2ccc(C(F)(F)F)cc2)s1` (stereo not drawn) [Example 5], the IC50 at V599E Raf is ≤ 100 nM. In addition, in assay [1], the EC50 is 100 to 1000 nM.

Turning to `CC(NC(=O)c1cnn2ccccc12)c1ncc(C(=O)Nc2ccc(Cl)c(C(F)(F)F)c2)s1` (stereo not drawn) [Example 222], the IC50 on V599E Raf lay within 100 to 1000 nM. The half-maximal effective concentration (EC50) in assay [1] is ≤ 100 nM.

For the compound `Cc1nc(C(C)NC(=O)c2cc3c(cn2)ncn3C)c(C)nc1Nc1ccc(C(F)(F)F)cc1` (stereo not drawn) [Example 341], the IC50 at V599E Raf is 100 to 1000 nM. Moreover, the EC50 in assay [1] fell in the range of 1000 to 10000 nM.

On to `C[C@@H](NC(=O)c1cnn(C)c1CN1CCC(F)(F)C1)c1ncc(C(=O)Nc2cc(C(F)(F)F)c(Cl)cn2)s1` [Example 130], for which, at V599E Raf, the IC50 lay within 100 to 1000 nM. Also, the EC50 in assay [1] was in the range of 100 to 1000 nM.

Turning to `C[C@@H](NC(=O)c1cnc2n1CCCN2C)c1ncc(C(=O)Nc2cc(C(F)(F)F)c(Cl)cn2)s1` [Example 167], the IC50 at V599E Raf is ≤ 100 nM. Also, the concentration for a half-maximal effect (EC50) in assay [1] was in the range of 100 to 1000 nM.

Consider `CC(=O)N1CCn2c(C(=O)N[C@H](C)c3ncc(C(=O)Nc4cc(C(F)(F)F)c(Cl)cn4)s3)cnc2C1` [Example 316], for which the IC50 at V599E Raf is 100 to 1000 nM. The concentration for a half-maximal effect (EC50) in assay [1] fell in the range of 1000 to 10000 nM.

As to `C[C@@H](NC(=O)c1cnn(C)c1CNCCF)c1ncc(C(=O)Nc2cc(C(F)(F)F)c(Cl)cn2)s1` [Example 131], the IC50 at V599E Raf was in the range of 100 to 1000 nM. In addition, the 50% effective concentration (EC50) in assay [1] is 100 to 1000 nM.

As to `Cc1ccc(NC(=O)c2cc([C@@H](C)NC(=O)c3cnn4cccnc34)no2)cc1C(F)(F)F` [Example 221], the IC50 on V599E Raf fell in the range of 100 to 1000 nM. For the same compound, the half-maximal effective concentration (EC50) in assay [1] was in the range of 100 to 1000 nM.

As to `C[C@@H](NC(=O)c1cc2c(cn1)ncn2C1CCC1)c1cnc(Nc2ccc(C(F)(F)F)cc2)s1` [Example 176], on V599E Raf, the IC50 was ≤ 100 nM. Also, in assay [1], the EC50 was ≤ 100 nM.

As for `CC(NC(=O)c1cc2c(cn1)ncn2C(CO)CO)c1cnc(Nc2ccc(C(F)(F)F)cc2)s1` (stereo not drawn) [Example 32], the IC50 at V599E Raf was ≤ 100 nM. Further, the half-maximal effective concentration (EC50) in assay [1] lay within 1000 to 10000 nM.

In the case of `C[C@@H](NC(=O)c1cccc(N2CCCCC2)n1)c1ncc(C(=O)Nc2cc(C(F)(F)F)c(Cl)cn2)s1` [Example 94], the IC50 on V599E Raf lay within 100 to 1000 nM. Also, in assay [1], the EC50 lay within 1000 to 10000 nM.

In the case of `C[C@@H](NC(=O)c1cnn(-c2ccccc2)c1N)c1ncc(C(=O)Nc2cc(C(F)(F)F)c(Cl)cn2)s1` [Example 121], the IC50 on V599E Raf fell in the range of 100 to 1000 nM. Besides, the EC50 in assay [1] is 100 to 1000 nM.

On to `CC(NC(=O)c1cc2c(cn1)ncn2C)c1cnc(Nc2ccc(C(F)(F)F)cc2)s1` (stereo not drawn) [Example 2], for which, on V599E Raf, the IC50 is ≤ 100 nM. The concentration for a half-maximal effect (EC50) in assay [1] was ≤ 100 nM.

In the case of `Cc1c(C(=O)NC(C)c2cnc(Nc3ccc(C(F)(F)F)cc3)s2)cnn1C` (stereo not drawn) [Example 82], the IC50 on V599E Raf is ≤ 100 nM. Also, the 50% effective concentration (EC50) in assay [1] was 100 to 1000 nM.

For `CC(NC(=O)c1cc2c(cn1)ncn2C)c1cnc(Nc2ccc(C(F)(F)F)nc2Cl)s1` (stereo not drawn) [Example 263], the IC50 at V599E Raf was ≤ 100 nM. The concentration for a half-maximal effect (EC50) in assay [1] was in the range of 100 to 1000 nM.

Take `Cc1scnc1C(=O)N[C@H](C)c1ncc(C(=O)Nc2cc(C(F)(F)F)c(Cl)cn2)s1` [Example 96]: the IC50 on V599E Raf is ≤ 100 nM. The concentration giving a half-maximal response (EC50) in assay [1] fell in the range of 1000 to 10000 nM.

With `CCn1ncc(C(=O)N[C@H](C)c2ncc(C(=O)Nc3cc(C(F)(F)F)c(Cl)cn3)s2)c1C` [Example 126], the IC50 at V599E Raf was ≤ 100 nM. Further, the half-maximal effective concentration (EC50) in assay [1] was ≤ 100 nM.

Consider `CCNCCn1cnc2cnc(C(=O)NC(C)c3cnc(Nc4ccc(C(F)(F)F)cc4)s3)cc21` (stereo not drawn) [Example 34], for which the IC50 on V599E Raf is ≤ 100 nM. Further, in assay [1], the EC50 was in the range of 100 to 1000 nM.

Take `CC(NC(=O)c1cc2c(cn1)ncn2C1CCC1)c1cnc(Nc2cnc(C(C)(C)C)nc2)s1` (stereo not drawn) [Example 286]: the IC50 on V599E Raf was ≤ 100 nM. In assay [1], the 50% effective concentration (EC50) was ≤ 100 nM.

Regarding `Cc1ccc(NC(=O)c2cc([C@@H](C)NC(=O)c3cnn4cc(-c5ccncn5)cnc34)no2)cc1C(F)(F)F` [Example 333], the IC50 at V599E Raf is 100 to 1000 nM. The EC50 in assay [1] fell in the range of 100 to 1000 nM.

For the compound `C[C@@H](NC(=O)c1cnn(C)c1CN1CCCCC1)c1ncc(C(=O)Nc2cc(C(F)(F)F)c(Cl)cn2)s1` [Example 128], the IC50 on V599E Raf was in the range of 100 to 1000 nM. For the same compound, the EC50 in assay [1] was in the range of 100 to 1000 nM.

`CC(NC(=O)c1cc2c(cn1)ncn2C1CCC1)c1cnc(Nc2ccc(C(F)(F)F)cc2)cn1` (stereo not drawn) [Example 175]: the IC50 at V599E Raf was ≤ 100 nM. The EC50 in assay [1] is ≤ 100 nM.

In the case of `CCN1CC[C@H](n2cnc3cnc(C(=O)N[C@@H](C)c4cnc(Nc5ccc(C(F)(F)F)cc5)s4)cc32)C1` [Example 33], at V599E Raf, the IC50 was ≤ 100 nM. Also, in assay [1], the EC50 is 100 to 1000 nM.

In the case of `COCCOc1cc(C(F)(F)F)ccc1Nc1ncc(C(C)NC(=O)c2cc3c(cn2)ncn3C)s1` (stereo not drawn) [Example 282], the IC50 at V599E Raf was ≤ 100 nM. Moreover, the EC50 in assay [1] fell in the range of 100 to 1000 nM.

Take `CCCNc1ncc(C(=O)N[C@H](C)c2ncc(C(=O)Nc3cc(C(F)(F)F)c(Cl)cn3)s2)n1C` [Example 153]: the IC50 on V599E Raf lay within 100 to 1000 nM. Further, in assay [1], the 50% effective concentration (EC50) lay within 1000 to 10000 nM.

For `CC(NC(=O)c1cn2c(Cl)cnc2cn1)c1cnc(Nc2ccc(C(F)(F)F)cc2)s1` (stereo not drawn) [Example 299], the IC50 at V599E Raf was ≤ 100 nM. Further, the EC50 in assay [1] is 100 to 1000 nM.

As to `CC(NC(=O)c1ccc2nccnc2c1)c1cnc(Nc2ccc(C(F)(F)F)cc2)s1` (stereo not drawn) [Example 73], on V599E Raf, the IC50 was ≤ 100 nM. In addition, the half-maximal effective concentration (EC50) in assay [1] lay in the range of 100 to 1000 nM.

For `C[C@@H](NC(=O)c1cnn2ccccc12)c1cc(C(=O)Nc2ccc(Cl)c(C(F)(F)F)c2)on1` [Example 220], the IC50 at V599E Raf was ≤ 100 nM. For the same compound, the EC50 in assay [1] was 100 to 1000 nM.

Take `C[C@@H](NC(=O)c1cc2c(cn1)ncn2C)c1cnc(Nc2ccc(C(F)(F)F)cc2)s1` [Example 4]: at V599E Raf, the IC50 is ≤ 100 nM. For the same compound, the 50% effective concentration (EC50) in assay [1] is ≤ 100 nM.

What is called EC50 is the concentration that produces a half-maximal response.
